# Counter-ions that a name gives are not always drawn.
# Columns and labels:
# [1] = Aqueous solubility of m-AMSA base and salts
# [2] = Storage stability / precipitation of m-AMSA lactate aqueous solutions
# animal tumor systems = details: Cain et al., Europ. J. Cancer 10:539-549 (1974); cited from earlier work
# [3] = prior art; cited from earlier work
compound,measurement,setting,value
COc1cc(NS(C)(=O)=O)ccc1Nc1c2ccccc2nc2ccccc12 [m-AMSA L(+)-lactate monohydrate salt],reconstitution rates,[1],excellent
same,solubility,[1]; water,~2500 µg/mL
same,stability,[2]; for use as an intravenous drug,the stability necessary for use as an intravenous drug
COc1cc(NS(C)(=O)=O)ccc1Nc1c2ccccc2nc2ccccc12 [m-AMSA lactate salts],precipitation under extended storage,"[2]; concentrations as high as 5 mg/ml, extended storage at 24° C.",can result in precipitates
"COc1cc(NS(C)(=O)=O)ccc1Nc1c2ccccc2nc2ccccc12 [m-AMSA, 4'9-(acridinylamino) methanesulfon-m-anisidide]",antitumor activity,animal tumor systems,significant antitumor activity
same,solubility in water,[3],very limited solubility in water
COc1cc(NS(C)(=O)=O)ccc1Nc1c2ccccc2nc2ccccc12 [monohydrochloride],solubility in water,[3],insufficiently water-soluble
COc1cc(NS(C)(=O)=O)ccc1Nc1c2ccccc2nc2ccccc12 [monomethanesulfonate],solubility in water,[3],insufficiently water-soluble

# Reference: patent publication US4663458A, “Water soluble salt composition of m-AMSA” (Bristol-Myers Company, priority 1985, dated 1987)
